Reference: paper PMC9783783 (Pharmaceutics, 2022)

Key:
[1] = in vitro; settings: for fraction unbound at 24 h, 10 μg/mL: rat, plasma, pH 7.4, Plasma protein binding
Experimental: Rat plasma (1 mL) from each group was dialyzed against 1 mL of isotonic Sørensen phosphate buffer (pH 7.4) containing 3% dextran (“the buffer”) via a Spectra/Por 2 membrane (molecular weight cutoff: 12,000–14,000 Da; Spectrum Medical Industries, Los Angeles, CA, USA). […] The binding percentage (%) was calculated as follows:(1) Binding %=CP−CB/CP×100

[2] = Experimental: Enzyme kinetics in the hepatic and intestinal microsomes were determined according to a previously reported method. Microsomal protein concentrations in the liver and intestine were measured using bicinchoninic acid assay. […] The total volume was adjusted to 1 mL by adding 0.1 M phosphate-buffered solution (pH 7.4) to the system, and the samples were incubated for 15 min in a water-bath shaker at 37 °C at the rate of 50 oscillations per min. The reaction was completed by adding 2 volumes of methanol. Subsequently, two 50 μL aliquots of each reaction mixture were collected.
[3] = system: P-gp; settings: cited from earlier work
[4] = rats (n = 3), 10 mg/kg i.v.; cited from earlier work
[5] = in vivo; settings: for AUC / clearance / CL renal / half-life / Vd / Cmax / bioavailability / Tmax: rat, in vivo; for clearance: CL; for CL renal: CLR; for half-life: Terminal half-life; for Vd: Vss; for bioavailability: F (absolute oral bioavailability), 20 mg/kg oral vs 10 mg/kg i.v.
Experimental: All surgical procedures were performed following anesthesia with 100 mg/kg ketamine according to a previously reported method. For the intravenous study, the carotid artery and jugular vein were cannulated for blood sampling and drug administration, respectively. For the oral study, rats were restrained from food overnight but were allowed to drink water ad libitum. Only the carotid artery was cannulated for the blood sampling.
A heparinized 0.9% NaCl-injectable solution (10 IU/mL) was immediately flushed into the carotid artery after collecting the blood samples to prevent blood clotting.
The volume of the combined urine was then measured, and two 100 μL aliquot samples were collected. At the same time, the rat abdomen was surgically opened, and the whole gastrointestinal tract was collected in a beaker containing 50 mL methanol and cut into small pieces. After even mixing, 50 µL of the supernatant was collected.
Pharmacokinetic parameters were estimated using the standard method by non-compartmental analysis (WinNonlin; Pharsight Corporation, Mountain View, CA, USA). AUC values were calculated using the trapezoidal rule–extrapolation method. The peak plasma concentration (Cmax) and time to reach Cmax (Tmax) were measured directly from the plasma concentration–time curves. […] The glomerular filtration rate was measured by calculating the CLCR, assuming that the kidney function was stable during the experimental period.

[6] = rats, intraportal administration; cited from earlier work
[7] = various pH buffers (pH 2–10) and gastric juice (pH 3.5), 24 h; cited from earlier work
[8] = human, oral; cited from earlier work
[9] = hepatic microsomes, LC rats vs CON rats
[10] = LC rats vs CON rats, 10 mg/kg i.v.
[11] = LC rats vs CON rats, 20 mg/kg oral
[12] = LC-ISN rats vs CON rats, 10 mg/kg i.v.
[13] = LC-ISN rats vs CON rats, 20 mg/kg oral
[14] = LC-ISN rats vs LC rats, 10 mg/kg i.v.
[15] = LC-ISN rats vs LC rats, 20 mg/kg oral
[16] = iv, 10 mg/kg, CON rats, 10 mg/kg i.v. 1 min infusion
[17] = iv, 10 mg/kg, LC rats, 10 mg/kg i.v. 1 min infusion
[18] = iv, 10 mg/kg, LC-ISN rats, 10 mg/kg i.v. 1 min infusion
[19] = iv, 10 mg/kg, CON rats, 10 mg/kg i.v.
[20] = iv, 10 mg/kg, LC rats, 10 mg/kg i.v.
[21] = iv, 10 mg/kg, LC-ISN rats, 10 mg/kg i.v.
[22] = po, 20 mg/kg, CON rats, 20 mg/kg oral
[23] = po, 20 mg/kg, LC rats, 20 mg/kg oral
[24] = po, 20 mg/kg, LC-ISN rats, 20 mg/kg oral

With `CC1CCN(C(=O)CC#N)CC1N(C)c1ncnc2[nH]ccc12` (stereo not drawn) [tofacitinib, 3-(4-methyl-3-(methyl(7H-pyrrolo[2,3-d]pyrimidin-4yl)amino)piperidin-1-yl)-3-oxopropanenitrile] the “Decrease in plasma protein binding” value ([1]; LC rats vs CON rats) was 28.3%, the “Decrease in plasma protein binding” value ([1]; LC-ISN rats vs CON rats) was 21.5% and the fraction unbound at 24 h, 10 μg/mL ([1]; CON rat plasma, 10 μg/mL tofacitinib, 37 °C, 24 h) was 0.749. It also gave a fraction unbound at 24 h, 10 μg/mL ([1]; LC rat plasma, 10 μg/mL tofacitinib, 37 °C, 24 h) of 0.82, a fraction unbound at 24 h, 10 μg/mL ([1]; LC-ISN rat plasma, 10 μg/mL tofacitinib, 37 °C, 24 h) of 0.803 and a fraction unbound at 24 h, 10 μg/mL ([1]; range over CON, LC and LC-ISN rats) of 0.749 to 0.82. The “Km for disappearance of tofacitinib” value ([2]; hepatic microsomes, CON, LC and LC-ISN rats) was “comparable among the three groups of rats”, the “Decrease in hepatic CLint” value [2, 9] was 64.9% and the “Slower Vmax for disappearance of tofacitinib” value [2, 9] was 63.4%. The “Hepatic CLint recovered to % of CON rats” value ([2]; hepatic microsomes, LC-ISN rats vs CON rats) was 92.2%, the “Intestinal CLint” value ([2]; intestinal microsomes, CON, LC and LC-ISN rats) was “not significantly different among the three groups of rats” and the P-gp substrate [3] was “substrate of P-gp”. The Biliary excretion [4] was 0.703 % of the unchanged drug dose, the “Ae0–24 h (excreted in urine as unchanged for 24 h)” value ([5]; CON rats, 10 mg/kg i.v.) was 13.9 ± 2.28 % of dose and the CLNR ([5]; CON rats, 10 mg/kg i.v.) was 21.1 ± 4.57 mL/min/kg. The “GI24 h (remained in the gastrointestinal tract at 24 h)” value ([5]; CON rats, 10 mg/kg i.v.) was 0.164 ± 0.102 % of dose, the “Ae0–24 h” value ([5]; CON rats, 20 mg/kg oral) was 11.8 ± 4.08 % of dose and the GI24 h ([5]; CON rats, 20 mg/kg oral) was 0.106 ± 0.101 % of dose. The “Greater Ae0–24 h” value [5, 10] was 189%, the “Increase in AUC” value [5, 10] was 158% and the “Increase in Vss” value [5, 10] was 86.0%. The Longer terminal half-life [5, 10] was 219%, the “Slower CL” value [5, 10] was 54.4% and the “Slower CLNR” value [5, 10] was 69.9%. For the same compound, the “Increase in AUC” value [5, 11] was 429%, the “Increase in Ae0–24 h” value [5, 11] was 203% and the “Increase in Cmax” value [5, 11] was 158%. The “Increase in F” value [5, 11] was 105%, the “Ae0–24 h (excreted in urine as unchanged for 24 h)” value ([5]; LC rats, 10 mg/kg i.v.) was 40.2 ± 18.9 % of dose and the CLNR ([5]; LC rats, 10 mg/kg i.v.) was 6.35 ± 1.27 mL/min/kg. The “GI24 h (remained in the gastrointestinal tract at 24 h)” value ([5]; LC rats, 10 mg/kg i.v.) was 2.07 ± 2.12 % of dose, the “Ae0–24 h” value ([5]; LC rats, 20 mg/kg oral) was 35.8 ± 16.9 % of dose and the GI24 h ([5]; LC rats, 20 mg/kg oral) was 1.73 ± 2.04 % of dose. For the same compound, the “Greater Ae0–24 h” value [5, 12] was 117%, the “Increase in terminal half-life” value [5, 12] was 64.4% and the “Slower CL” value [5, 12] was 42.7%. For the same compound, the “Slower CLNR” value [5, 12] was 54.1%, the “Increase in AUC” value [5, 13] was 223% and the “Increase in Ae0–24 h” value [5, 13] was 204%. The “Increase in Cmax” value [5, 13] was 72.2%, the “Increase in F” value [5, 13] was 92.9% and the “Decrease in AUC” value [5, 14] was 35.1%. For the same compound, the “Decrease in terminal half-life” value [5, 14] was 48.5%, the “Decrease in AUC” value [5, 15] was 38.9% and the “Decrease in Cmax” value [5, 15] was 33.2%. For the same compound, the “Ae0–24 h (excreted in urine as unchanged for 24 h)” value ([5]; LC-ISN rats, 10 mg/kg i.v.) was 30.1 ± 12.3 % of dose, the CLNR ([5]; LC-ISN rats, 10 mg/kg i.v.) was 9.68 ± 2.40 mL/min/kg and the “GI24 h (remained in the gastrointestinal tract at 24 h)” value ([5]; LC-ISN rats, 10 mg/kg i.v.) was 0.166 ± 0.135 % of dose. The “Ae0–24 h” value ([5]; LC-ISN rats, 20 mg/kg oral) was 35.9 ± 16.8 % of dose, the GI24 h ([5]; LC-ISN rats, 20 mg/kg oral) was 0.340 ± 0.288 % of dose and the AUC [5, 16] was 7330 ng·h/mL. The AUC [5, 17] was 18900 ng·h/mL, the AUC [5, 18] was 12300 ng·h/mL and the clearance [5, 19] was 24.1 ± 6.27 mL/min/kg. It also gave a clearance [5, 20] of 11 ± 2.06 mL/min/kg, a clearance [5, 21] of 13.8 ± 1.73 mL/min/kg and a CL renal [5, 19] of 3.73 ± 1.09 mL/min/kg. It also gave a CL renal [5, 20] of 4.65 ± 2.74 mL/min/kg, a CL renal [5, 21] of 4.1 ± 1.64 mL/min/kg and a half-life [5, 16] of 35.4 ± 19.2 min. The half-life [5, 17] was 113 ± 43.7 min, the half-life [5, 18] was 58.2 ± 16.8 min and the Vd [5, 19] was 0.429 ± 0.253 L/kg. For the same compound, the Vd [5, 20] was 0.798 ± 0.177 L/kg, the Vd [5, 21] was 0.8 ± 0.326 L/kg and the AUC [5, 22] was 6400 ng·h/mL. It also gave an AUC [5, 23] of 33800 ng·h/mL, an AUC [5, 24] of 20700 ng·h/mL and a CL renal [5, 22] of 6.98 ± 2.99 mL/min/kg. It also gave a CL renal [5, 23] of 3.62 ± 1.78 mL/min/kg, a CL renal [5, 24] of 5.71 ± 2.47 mL/min/kg and a Cmax [5, 22] of 3530 ± 1460 ng/mL. The Cmax [5, 23] was 9100 ± 1260 ng/mL, the Cmax [5, 24] was 6080 ± 1990 ng/mL and the bioavailability ([5]; po, 20 mg/kg, CON rats) was 43.6%. It also gave a bioavailability ([5]; po, 20 mg/kg, LC rats) of 89.5%, a bioavailability ([5]; po, 20 mg/kg, LC-ISN rats) of 84.1% and a Tmax [5, 22] of 50 min. The Tmax [5, 23] was 55.7 min, the Tmax [5, 24] was 85.7 min and the GI24 h ([5]; the three groups of rats, 20 mg/kg oral) was “less than 1.73 % of the oral dose”. The Hepatic first-pass effect [6] was 42.0%, the Stability [7] was “stable” and the “Fraction excreted by the kidneys in unmetabolized form” value [8] was 30%.
